Values of other authors in patent publication US10449194B2 (Tocagen Inc., priority 2008, dated 2019).
Where two headings read alike, the source gives them in different places.

[1] = patients with normal renal function

## Nc1nc(=O)[nH]cc1F [Example 5-FC, 5-fluorocytosine]
2 gram oral dose, normal subjects
  Time to peak serum concentrations: ≤ 2 h
Vermes et al. 2000
  Serum level above which toxicity generally occurs: > 100 µg/mL
Nephrectomized or anuric patients
  Average half-life: 85 h
Oral vs intravenous AUC of serum concentrations
  Bioavailability (absorption) after oral administration: 76-89%
[1]
  Half-life in the serum: 2 to 5 h
  Time to peak concentrations in serum and other body fluids: 1 to 2 h
Patients with severe renal insufficiency
  Half-life in the serum: up to 85 h
